This note sets out measurements from patent US8741932B2, “Imidazopyridine derivatives” (Piramal Enterprises Limited, priority 2009, dated 2014).

The test system of one test is U 87 MG. Nature of the test: Cytotoxicity assay (propidium iodide), U 87 MG. Format: cell-based. The conditions noted are these: Homo sapiens; U 87 MG (C8b, glioblastoma); 48 hours.
A further test has as its system U266B1. Nature of the test: Cytotoxicity assay (propidium iodide), U266B1. The format is cell-based. Particulars: U266B1 (C7a, multiple myeloma); 48 hours.
The next test has as its system RPMI 8226. Nature of the test: Cytotoxicity assay (propidium iodide), RPMI 8226. Format: cell-based. The conditions noted are these: Homo sapiens; RPMI 8226 (C7b, multiple myeloma); 48 hours.
The next test deals with U 373. As to the kind of experiment: Cytotoxicity assay (propidium iodide), U 373. The conditions noted are these: Homo sapiens, U373 MG; U 373 (C8a, glioblastoma); 48 hours. The format is cell-based.
A further test deals with G361. Nature of the test: Cytotoxicity assay (propidium iodide), G361. The format is cell-based. Particulars: G-361; G361 (C9a, human melanoma); 48 hours.
The test system of a further test is BT 549. As to the kind of experiment: Cytotoxicity assay (propidium iodide), BT 549. The format is cell-based. Particulars: Homo sapiens; BT 549 (C6d, breast); 48 hours.
Another test relates to MDA MB 468. Nature of the test: Cytotoxicity assay (propidium iodide), MDA MB 468. Format: cell-based. Particulars: Homo sapiens; MDA MB 468 (C6b, breast); 48 hours.
Test [1] concerns DSS-induced colitis in C57BL/6J mice. As to the kind of experiment: Ulcerative colitis, DSS-induced colitis in mice. Format: in vivo. Particulars: 3% DSS, 10 mg/kg orally daily, day 6 to day 10. On the procedure: The efficacy of compounds of the present invention on the gross pathology of colitis and proinflammatory mediators was determined by following the method described in Am. J. Physiol. Gastrointest. Liver Physiol.
C57BL/6J mice (6 weeks of age, weighing 18-22 gms) were obtained from Jackson Laboratories (Bar Harbor, Me.) and housed in individually ventilated cage (IVC) system. Colitis was induced in mice by replacing drinking water with 3% (w/v) DSS (molecular weight 35-50 kDa, ICN Biomedicals, Aurora, Ohio, US) in water. This solution was made available to the experimental animals ad libitum, from day 0 to day 10. A batch of six naive animals received water instead of DSS during this period.
DSS-induction of colitis was manifested with increase in clinical disease activity index associated with weight loss and presence of blood in feces.
The animals were weighed every day and the record of body weights was maintained. The compound of Example 25 (10 mg/kg, prepared at a concentration of 1 mg/mL in 0.5% (w/v) CMC after mixing a drop of Tween 20) was administered orally daily to the colitis induced animals. This treatment was initiated on day 6 and continued up to day 10. During this period, DSS control animals received DSS, positive control animals received 5-aminosalicylic acid (5-ASA, 25 mg/kg, p.o.) and naïve animals received 0.5% CMC once daily.
At the end of DSS treatment period, mice were humanely euthanized with 15% urethane (i.p.). The whole colon (i.e., including ceacum, proximal colon and distal colon) was excised.
The colon was macrosopically assessed by determining • a) Rectal bleeding/blood in faeces • b) Stool consistency • c) Blood in colon • d) Colon length • e) % weight loss • f) Blood hemoglobin concentration
Disease Activity Index: various features were scored as delineated in the following table.
Disease activity index is the sum of scores of all features.

For orientation: IC50 means the concentration that gives 50% inhibition.

Method for BT 549: (§1) Cells from cell lines as mentioned in the table given below were seeded at a density of 3000 cells/well in a white opaque 96-well plate. Following incubation at 37° C./5% CO2 for a period of 18-24 hours, the cells were treated with various concentrations (stock solution was prepared in DMSO and subsequent dilutions were made in media as per ATCC guidelines) of the representative compounds of present invention (refer table 3) for a period of 48 hours. At the end of treatment, the spent culture medium was discarded, the cells were washed with 1×PBS and 200 μl of 7 μg/ml propidium iodide was added to each well. The plates were frozen at −70° C. for at least 24 hours. For analysis, the plates were brought to RT, allowed to thaw and were read in PolarStar fluorimeter with the fluorescence setting. The percentage of viable cells in the non treated set of wells was considered to be 100 and the percentage viability following treatment was calculated accordingly. IC50 values were calculated from graphs plotted using these percentages.
Method for G361: as §1
Method for MDA MB 468: as §1
Method for RPMI 8226: as §1
Method for U 373: as §1
Method for U 87 MG: as §1
Method for U266B1: as §1

Regarding `Cc1ccc(F)cc1S(=O)(=O)N(C)N=Cc1cnc2ccc(-c3cccnc3)cn12` [Example 21, 5-Fluoro-N, 2-dimethyl-N′-((6-(pyridine-3-yl)imidazo[1,2-a]pyridine-3-yl)methylene) benzenesulfonohydrazide], the IC50 in the test on U 87 MG, with U266B1, in the test with RPMI 8226, with U 373, with G361 and in the test with BT 549 was 10 to 5000 nM in each case. This compound showed a 50% inhibitory concentration (IC50) with MDA MB 468 of 10 to 5000 nM.

With `Cc1ccc([N+](=O)[O-])cc1S(=O)(=O)N(C)N=Cc1cnc2ccc(-c3cccnc3)cn12` [Example 25], in test [1], the “DSS-induced body weight loss” value was “attenuated”, the DSS-induced colon bleeding entry is on record as “attenuated”, the “DSS-induced decrease in hematocrit” value is “inhibited” and the “DSS-induced disease activity index” value is “reduced”. Further, in test [1], the “DSS-induced shortening of colon” value is “inhibited” and the rectal bleeding index result was “improved”. The compound also had a 50% inhibitory concentration (IC50) in the test with BT 549 of 10 to 5000 nM.
